Test results from ChEMBL document CHEMBL5550137 (Bioorg Med Chem Lett, 2024).
In brackets after ≈: the same amount, converted by molar mass.

Tested on: not listed separately
Experiment: Solubility in water by HPLC-UV analysis
Format: physicochemical
Conditions: not given; call rule not given here
Work on `Cl.O=C1c2cccc3c(Br)ccc(c23)C(=O)N1Cc1cncnc1` yielded a solubility of 262 µg/mL. With `CCN1C(=O)c2cccc3c(Br)ccc(c23)C1=O` the solubility was 103 µg/mL (≈ 340 µM).

Tested on: NCI-H460
Experiment: Anti-cancer activity of human PTX-resistant NCI-H460 cells incubated for 48 hrs by CCK8 assay
Format: functional, cell-based
Conditions: NCI-H460, 48 h
`CC(=O)O[C@H]1C(=O)[C@@]2(C)[C@H]([C@H](OC(=O)c3ccccc3)[C@]3(O)C[C@H](OC(=O)[C@H](O)[C@@H](NC(=O)c4ccccc4)c4ccccc4)C(C)=C1C3(C)C)[C@]1(OC(C)=O)CO[C@@H]1C[C@@H]2O` [PACLITAXEL] showed an IC50 of 633 nM.

Target: T1, Cytochrome P450 1B1 (Homo sapiens, UniProt Q16678)
T1 sequence (Q16678 whole entry): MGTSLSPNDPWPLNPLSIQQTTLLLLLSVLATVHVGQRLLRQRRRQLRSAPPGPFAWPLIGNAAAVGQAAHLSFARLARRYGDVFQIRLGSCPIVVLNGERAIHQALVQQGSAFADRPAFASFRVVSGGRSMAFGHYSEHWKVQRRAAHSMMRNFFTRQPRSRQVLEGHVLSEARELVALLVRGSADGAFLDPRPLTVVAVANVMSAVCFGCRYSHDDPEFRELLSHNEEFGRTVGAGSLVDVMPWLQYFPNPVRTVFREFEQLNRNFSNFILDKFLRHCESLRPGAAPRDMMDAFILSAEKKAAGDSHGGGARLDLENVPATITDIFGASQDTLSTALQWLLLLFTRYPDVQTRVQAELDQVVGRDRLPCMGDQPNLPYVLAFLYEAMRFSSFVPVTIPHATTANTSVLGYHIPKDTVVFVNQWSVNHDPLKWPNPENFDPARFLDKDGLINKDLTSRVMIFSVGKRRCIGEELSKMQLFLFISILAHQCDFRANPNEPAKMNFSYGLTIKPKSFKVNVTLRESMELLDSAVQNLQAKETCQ
Experiment: Inhibition of recombinant human CYP1B1 using 7-ER as substrate in presence of NADPH by fluorescence based assay
Conditions: not given
With `CCN1C(=O)c2cccc3cccc(c23)C1=O` the IC50 was 605 nM. Work on `O=C1c2cccc3c(Br)ccc(c23)C(=O)N1Cc1cccnc1` yielded an IC50 of 1.81 nM. `Nc1ccc2c3c(cccc13)C(=O)N(Cc1cncnc1)C2=O` gave an IC50 of 67.1 nM. Work on `O=C1c2cccc3c(Br)ccc(c23)C(=O)N1Cc1cn[nH]c1` yielded an IC50 of 0.21 nM. With `O=C1c2cccc3c(Br)ccc(c23)C(=O)N1CC1Oc2ccccc2O1` the IC50 was 12 nM. `O=C1c2cccc3c(Br)ccc(c23)C(=O)N1Cc1cc[nH]n1` showed an IC50 of 17.6 nM. In the case of `O=C1c2cccc3c(Br)ccc(c23)C(=O)N1CC1CC1`, the IC50 is reported as 19.2 nM. Compound `O=C1c2cccc3c(Br)ccc(c23)C(=O)N1CC1CCCC1` has an IC50 of 11.7 nM. `O=C1c2cccc3c(Br)ccc(c23)C(=O)N1CCCc1ccccc1` gave an IC50 of 16.8 nM. With `CCN1C(=O)c2cccc3c(O)ccc(c23)C1=O` the IC50 was > 1000 nM. With `O=C1c2cccc3c(Br)ccc(c23)C(=O)N1Cc1ccccc1` the IC50 was 1.95 nM. Compound `O=C1c2cccc3c(Br)ccc(c23)C(=O)N1CCc1ccccc1` has an IC50 of 5.36 nM. With `O=C1c2cccc3c(Br)ccc(c23)C(=O)N1Cc1ccc[nH]1` the IC50 was 0.39 nM. For `CCN1C(=O)c2cccc3cc(Br)cc(c23)C1=O`, the IC50 was 5.32 nM. In the case of `O=C1c2cccc3c(Br)ccc(c23)C(=O)N1Cc1c[nH]cn1`, the IC50 is reported as 173 nM. `CCN1C(=O)c2cccc3c(Br)ccc(c23)C1=O` gave an IC50 of 5.63 nM. In the case of `O=C1c2cccc3cccc(c23)C(=O)N1Cc1cncnc1`, the IC50 is reported as 221 nM. With `O=C1c2cccc3c(Br)ccc(c23)C(=O)N1Cc1cccs1` the IC50 was 3.42 nM. Compound `O=C1c2cccc3c(Br)ccc(c23)C(=O)N1Cc1ccc2ncccc2c1` has an IC50 of 30 nM. In the case of `O=C1c2cccc3c(Br)ccc(c23)C(=O)N1Cc1cnccn1`, the IC50 is reported as 156 nM. Work on `O=C1c2cccc3c(Br)ccc(c23)C(=O)N1Cc1nccs1` yielded an IC50 of 36.7 nM. `O=C1c2cccc3c(Br)ccc(c23)C(=O)N1Cc1ccncc1` showed an IC50 of 1.42 nM. In the case of `O=C1c2cccc3c(Br)ccc(c23)C(=O)N1CC1CN(Cc2ccccc2)CCO1` (stereo unspecified), the IC50 is reported as > 1000 nM. In the case of `O=C1c2cccc3c(Br)ccc(c23)C(=O)N1Cc1ccncn1`, the IC50 is reported as 22.7 nM. With `O=C1c2cccc3c(Br)ccc(c23)C(=O)N1CCCCc1ccccc1` the IC50 was 57.3 nM. `O=C1c2cccc3c(Br)ccc(c23)C(=O)N1Cc1ncco1` showed an IC50 of 31 nM. For `O=C1c2cccc3c(O)ccc(c23)C(=O)N1Cc1cncnc1`, the IC50 was 56.6 nM. For `O=C1c2cccc3c(Br)ccc(c23)C(=O)N1CC1CCC1`, the IC50 was 3.64 nM. For `O=C1c2cccc3c(Br)ccc(c23)C(=O)N1CC1CCCCC1`, the IC50 was 7.99 nM. `O=C1c2cccc3c(Br)ccc(c23)C(=O)N1Cc1cncnc1` showed an IC50 of 0.04 nM. With `O=C1c2cccc3c(Br)ccc(c23)C(=O)N1Cc1ccon1` the IC50 was 42.3 nM. In the case of `O=C1c2cccc3c(Br)ccc(c23)C(=O)N1Cc1ccccn1`, the IC50 is reported as 148 nM. With `CCN1C(=O)c2cccc3ccc(Br)c(c23)C1=O` the IC50 was 3.52 nM. `O=C1c2cccc3c(Br)ccc(c23)C(=O)N1Cc1ncccn1` showed an IC50 of 91.7 nM.

Target: T1, Cytochrome P450 1B1
Experiment: Inhibition of recombinant human CYP1B1 using 7-ER as substrate measured after 33 mins in presence of NADPH by fluorescence based assay
Conditions: 0.55 h
With `O=C1c2cccc3c(Br)ccc(c23)C(=O)N1Cc1cncnc1` the “inhibition (INH)” value was “Not Active”.

Target: T1, Cytochrome P450 1B1
Experiment: Inhibition of human CYP1B1 over-expressed in CHO cells preincubated for 3 hrs followed media replacement containing estradiol without compound measured after 3 hrs
Format: cell-based
Conditions: not given
With `O=C1c2cccc3c(Br)ccc(c23)C(=O)N1Cc1cncnc1` the IC50 was 0.47 nM.

Target: T1, Cytochrome P450 1B1
Experiment: Mixed inhibition of recombinant human CYP1B1 using 7-ER as substrate in presence of NADPH by fluorescence based assay
Conditions: not given
`O=C1c2cccc3c(Br)ccc(c23)C(=O)N1Cc1cncnc1` showed a Ki of 0.0217 nM.

Tested on: HEK-293T
Experiment: Cytotoxicity against HEK293T cells expressing AhR/luc incubated for 48 hrs by CCK8 assay
Format: toxicity, cell-based
Conditions: human
In the case of `O=C1c2cccc3c(Br)ccc(c23)C(=O)N1Cc1cncnc1`, the Activity is reported as “Non-Toxic”.
